From US20250276955A1, “CORONAVIRUS MAIN PROTEASE INHIBITORS AND METHODS USING SAME” (Baylor College of Medicine, priority 2021, published 2025)
“Also recorded” adds a separate entry of the source.

Key:
SARS-COV-2 M^pro-His6 = SARS-COV-2 M^pro-His6 (Severe acute respiratory syndrome coronavirus 2, UniProt P0DTD1); assay: biochemical; format: biochemical; conditions: 25 nM enzyme, 15 μM fluorescent peptide, Morrison equation; Inactive = less than 50% inhibition at 25 μM compound; read-out: M^pro-His Ki
[1] = molecular target: SARS-COV-2 M^pro (authentic N- and C-termini) (Severe acute respiratory syndrome coronavirus 2, UniProt P0DTD1); assay: biochemical; format: biochemical
[2] = molecular target: SARS-CoV-2 main protease (M^pro) (Severe acute respiratory syndrome coronavirus 2, UniProt P0DTD1); assay: Protein thermal shift stability assay (SYPRO Orange); format: binding
[3] = Metabolic stability in mouse liver microsomes; format: in vitro ADME; conditions: 0.5 mg protein/mL, 2.0 μM compound, 1.0 mM NADPH
Description: (§1) The samples were collected at specific time-points 0, 30, and 60 min in duplicate. The reactions were terminated by adding an equivalent volume of ice-cold methanol and vortexed. […] Three μL of the supernatant was analyzed by UHPLC-Q Exactive Orbitrap MS (Thermo Fisher Scientific, USA) equipped with 50 mm×4.6 mm column (XDB C-18, Agilent Technologies, USA). The column temperature was maintained at 40° C. The flow rate was at 0.3 mL/min with a 30% mobile phase (acetonitrile containing 0.1% formic acid). Q Exactive MS was operated in positive mode with electrospray ionization. Ultra-pure nitrogen was applied as the sheath (45 arbitrary unit), auxiliary (10 arbitrary unit), sweep (1.0 arbitrary unit) and the collision gas. […] MS data were acquired from 80 to 1,200 Da in profile mode.

[4] = Metabolic stability in human liver microsomes; format: in vitro ADME
Description: as §1

HepG2 cells [5] = assay: HepG2 cell uptake assay; format: in vitro ADME; conditions: 10 μM, 2 hours
Description: The HepG2 cells maintained in DMEM (containing 1 g/L glucose, 10% fetal bovine serum and 1% penicillin/streptomycin) were seeded in a 12-well plate (a final density of 5×10^5/well) for cell uptake assay and 96-well plate for cytotoxicity assay (a final density of 5×10^4/well). The plate was incubated at 37° C. for 24 h.
The cells in 12-well plate were treated with CDD-1713 or CDD-1976 (final concentration: 10 μM). The plate was incubated at 37° C. for another 2 hr. The medium in the plate was decanted and the cells were rinsed with 1 mL of 1×DPBS for three times. 0.5 mL of 0.25% Trypsin was added into each well and incubated for 3.5 min (at 37° C.). 1 mL of complete medium was added into each well to quench the reaction. After spinning at 350×g for 5 min, the cell pellet was reconstituted in MeOH/H2O (v/v 1/1) and CDD-1713 or CDD-1976 was extracted from 100 μL of the resulting mixture with 100 μL of ice-cold methanol. The mixtures were centrifuged at rcf 15,000 for 15 min. Three μL of the supernatant was analyzed by UHPLC-Q Exactive Orbitrap MS (Thermo Fisher Scientific, USA) equipped with 50 mm×4.6 mm column (XDB C-18, Agilent Technologies, USA). The column temperature was set at 40° C. Ultra-pure nitrogen was applied as the sheath (45 arbitrary unit), auxiliary (10 arbitrary unit), sweep (1.0 arbitrary unit) and the collision gas. […]

[6] = Plasma stability assay, human plasma; format: in vitro ADME; conditions: 10 μM, 37° C., after 2 h incubation
Description: (§2) Compound CDD-1713 and CDD-1976 were incubated in human and mouse plasma respectively at a concentration of 10 μM in duplicate (n=2) at 37° C. At time-points of 0, 30, 60 and 120 min, 15 μL of sample were taken out and the reactions terminated by adding 75 μL of ice-cold methanol. The reaction mixtures were then vortexed for 30 sec and centrifuged at rcf 15,000 for 15 min. Following centrifugation, 3 μL of the supernatant was analyzed using UHPLC-Q Exactive Orbitrap MS. The percentage of test compound remaining at the individual time points relative to the 0 min sample was then determined.

[7] = Plasma stability assay, mouse plasma; format: in vitro ADME; conditions: 10 μM, 37° C., after 2 h incubation
Description: as §2

[8] = test system: SARS-COV-2 (USA_WA1/2020 isolate) in VERO E6 cells; assay: Real-Time Cell Analysis (RTCA) assay of SARS-COV-2 replication; format: cell-based
HepG2 cells [9] = assay: HepG2 cytotoxicity assay (XTT); conditions: 100 μM

## CN(C)C(=O)COc1ccc(-c2cccc3[nH]ncc23)cc1C=O [CDD-1976]
SARS-COV-2 M^pro-His6
  Ki: 37 ± 4 nM
[1]
  M^pro inhibition (in words): better inhibition compared to CDD-1713
[1]; 25 nM enzyme, 15 μM fluorescent peptide, Morrison equation, Inactive = less than 50% inhibition at 25 μM compound, read-out: M^pro Ki
  Ki: 42 ± 5 nM
[2]
  stabilization of M^pro in thermal shift assay (in words): stabilized; also recorded: concentration-dependent stabilization; also recorded: most pronounced temperature shift
[3]
  MLM t1/2 (half-life): 10.2
[4]; 0.5 mg protein/mL, 2.0 μM compound, 1.0 mM NADPH
  HLM t1/2 (half-life): 41.4
[4]; human, microsomes
  metabolic stability in human liver microsomes (in words): more stable
HepG2 cells [5]
  cell permeability in HepG2 uptake assay (in words): moderate cell permeability
[6]
  compound remaining in human plasma: 80%
[7]
  compound remaining in mouse plasma: 80%
[8]; Severe acute respiratory syndrome coronavirus 2, Vero C1008, 75 h, read-out: IC50, inhibition of SARS-COV-2 induced cell death (RTCA)
  IC50: 2500 nM
[8]; VERO E6 cells, 75 h
  prevention of SARS-COV-2 induced cell death (in words): reduced cell death in a dose-dependent manner
HepG2 cells [9]
  cytotoxicity in HepG2 cells (in words): no obvious cytotoxicity
